Where “and” joins values, the source holds several entries; their conditions need not be identical. Identical values can stand only once. Counter-ions that a name gives are not always drawn. Marks after values point to notes of the source that are not given here.
System: patients with Class III/IV heart failure
Test: BEST trial, bucindolol vs placebo, clinical outcomes incl. DNA substudy and norepinephrine-change analyses
Assay type: in vivo
Settings: for hazard ratio for hospitalizations, bucindolol vs placebo: adjusted for position 49; for Crude mortality: bucindolol group; for Mortality (M) hazard ratio, NE change quartile 2nd/1st / Mortality (M) hazard ratio, NE change quartile 3rd/1st / Mortality (M) hazard ratio, NE change quartile 4th/1st / Mortality + CHF hospitalization (M + H) hazard ratio, NE change quartile 2nd/1st / Mortality + CHF hospitalization (M + H) hazard ratio, NE change quartile 3rd/1st / Mortality + CHF hospitalization (M + H) hazard ratio, NE change quartile 4th/1st: within bucindolol group; for hazard ratio for survival, bucindolol vs placebo: adjusted for position 49 variants, age, sex, race
Text: Patients who participated in the Beta Blocker Evaluation of Survival Trial (BEST), (Lowes et al., 2002) and who consented for DNA substudies, were genotyped at the coding β1AR polymorphic sites. Enrollment in BEST was from May 31, 1995 to Dec. 31, 1998; the study design has been described in detail elsewhere (BEST Trial Investigators, 2001; and Lowes et al., 2002). Briefly, the study was a randomized, multicenter, placebo-controlled trial of the 3rd generation, nonselective β-blocker-vasodilator bucindolol (Bristow, 2000) in 2708 patients with Class III/IV heart failure (BEST Trial Investigators, 2001). Those receiving the active drug were administered 3 mg bucindolol twice daily for the first week, and up-titrated as tolerated on a weekly basis to 50 mg twice daily (or 100 mg twice daily for patients weighing >75 kg). Of the 2708 patients, 1040 consented for the substudy and had adequate DNA prepared from a blood sample. The study was approved by the BEST DNA Oversight Committee and the University of Cincinnati Institutional Review Board.
DNA was extracted from whole blood using standard techniques (Jones, 1963). Genotyping was performed using methods exactly as previously described in detail (Small et al., 2002). For the β1AR, variations at coding nucleotides 145 and 1165 were delineated, which correspond to amino acids 49 and 389. These alleles are designated as β1-Ser49, β1-Gly49 and β1-Arg389, β1-Gly389. All the DNA samples were successfully genotyped at the β1AR-389 locus and 1030 were successfully genotyped at β1AR-49.
The primary endpoints were all-cause mortality, hospitalizations adjudicated by an endpoints committee (BEST Trial Investigators, 2001) to be due to heart failure, and the combined endpoint of death or heart failure hospitalization. The variants at amino acid position 389 of the β1AR (Arg and Gly) were considered the primary genotypes hypothesized to influence […] efficacy. Continuous clinical variables are reported as mean ±SD, and comparisons were by t-test or Wilcoxon rank-sum tests. Categorical variables are reported as proportions and comparisons were by chi-square or Fisher's exact tests. Cumulative survival curves were constructed by Kaplan-Meier methods (Kaplan et al., 1958); and SAS (r) proprietary software, release 6.12. Cary, N.C.: SAS Institute, 1996). The Cox proportional-hazards regression model was used to examine the effects of treatment stratified by the indicated genotype. Results were adjusted for age, sex, race, and, as indicated, the β1-Gly49 polymorphism. Because of the limited number of comparisons, and an a priori hypothesis that was based on cell, transgenic, and other human studies […] Perez et al., 2003); and Wagoner et al., 2002), the P values <0.05 were considered to as significant, without adjustments for multiple comparisons.
Norepinephrine levels at baseline, or the change at 3 months were used to predict survival and the combined endpoint of mortality+CHF hospitalization. Absolute and log transformed data were initially analyzed. Because of skewness in norepinephrine levels natural log (Ln) transformed data were used in multivariate Cox proportional hazards regression models.
A Maximum Likelihood based method (Kalbfleisch et al., 1980) was used to categorize changes in norepinephrine into 3 groups for prediction of mortality or mortality+CHF hospitalization. This partitioning method finds the optimal split of norepinephrine values that maximize the likelihood of the resulting Cox proportional hazards model. In addition, a flexible cubic spline analysis (Green et al., 1994) was used to determine the shape and significance level of the relationship of norepinephrine changes at 3 months to survival.

[1] = 1st quartile of absolute NE change
[2] = 2nd quartile of absolute NE change
[3] = 3rd quartile of absolute NE change
[4] = 4th quartile of absolute NE change
[5] = BEST α2c DEL carrier (n = 207/1036)
[6] = BEST β1 389Arg/Arg + α2c DEL carriers (n = 73/1036)
[7] = BEST β1 389Arg/Arg + α2c WT/WT (n = 418/1036)
[8] = BEST β1 389 Gly carriers + DEL carriers (n = 134/1036)
[9] = BEST β1 389 Gly carriers + α2c WT/WT (n = 411/1036)
[10] = absolute NE change at 3 months, pg/ml
[11] = β1 389Arg/Arg and α2c WT/WT patients

CC(C)(Cc1c[nH]c2ccccc12)NCC(O)COc1ccccc1C#N (stereo not drawn) [bucindolol, (2-{2-hydroxy-3{{2-(3-indolyl)-1,1-dimethylethyl}amino}propoxy}-benzonitrile hydrochloride)]
bucindolol/placebo hazard ratio, mortality (M) (1st quartile of % NE change): 1.03
bucindolol/placebo hazard ratio, mortality + CHF hospitalization (M + H) (1st quartile of % NE change): 1.14
bucindolol/placebo hazard ratio, mortality (M) [1]: 0.96
bucindolol/placebo hazard ratio, mortality + CHF hospitalization (M + H) [1]: 1.19
bucindolol/placebo hazard ratio, mortality (M) (2nd quartile of % NE change): 0.98
bucindolol/placebo hazard ratio, mortality + CHF hospitalization (M + H) (2nd quartile of % NE change): 1.39
bucindolol/placebo hazard ratio, mortality (M) [2]: 0.98
bucindolol/placebo hazard ratio, mortality + CHF hospitalization (M + H) [2]: 1.30
bucindolol/placebo hazard ratio, mortality (M) (3rd quartile of % NE change): 0.56
bucindolol/placebo hazard ratio, mortality + CHF hospitalization (M + H) (3rd quartile of % NE change): 0.65
bucindolol/placebo hazard ratio, mortality (M) [3]: 0.63
bucindolol/placebo hazard ratio, mortality + CHF hospitalization (M + H) [3]: 0.58
bucindolol/placebo hazard ratio, mortality (M) (4th quartile of % NE change): 0.90
bucindolol/placebo hazard ratio, mortality + CHF hospitalization (M + H) (4th quartile of % NE change): 0.66
bucindolol/placebo hazard ratio, mortality (M) [4]: 0.80
bucindolol/placebo hazard ratio, mortality + CHF hospitalization (M + H) [4]: 0.74
hazard ratio of subsequent mortality with norepinephrine reduction at 3 months (likelihood analysis) (153 bucindolol subjects, NE reduction ≧244.5 pg/ml): 1.69
hazard ratio for hospitalizations, bucindolol vs placebo (Arg389 homozygotes): 0.63
HF Hospitalization hazard ratio, bucindolol vs placebo [5]: 0.76; 67 Ev
Mortality + HF Hospitalization hazard ratio, bucindolol vs placebo [5]: 0.89; 84 Ev
HF Hospitalization hazard ratio, bucindolol vs placebo (BEST α2c WT/WT (n = 829/1036)): 0.74; 267 Ev
Mortality + HF Hospitalization hazard ratio, bucindolol vs placebo (BEST α2c WT/WT (n = 829/1036)): 0.72; 341 Ev
Mortality hazard ratio, bucindolol vs placebo (BEST α2c WT/WT (n = 829/1036)): 0.70; 155 Ev
HF Hospitalization hazard ratio, bucindolol vs placebo (BEST β1 389Arg/Arg (n = 493/1040), hydrochloride): 0.64 and 0.64; 154
HF Hospitalization hazard ratio, bucindolol vs placebo [6]: 0.81; 73 Ev
Mortality + HF Hospitalization hazard ratio, bucindolol vs placebo [6]: 0.85; 34 Ev
Mortality hazard ratio, bucindolol vs placebo [6]: 0.71; 13 Ev
HF Hospitalization hazard ratio, bucindolol vs placebo [7]: 0.59; 126 Ev
Mortality + HF Hospitalization hazard ratio, bucindolol vs placebo [7]: 0.61; 156 Ev
Mortality hazard ratio, bucindolol vs placebo [7]: 0.60; 69 Ev
HF Hospitalization hazard ratio, bucindolol vs placebo [8]: 0.62; 134 Ev
Mortality + HF Hospitalization hazard ratio, bucindolol vs placebo [8]: 0.81; 50 Ev
Mortality hazard ratio, bucindolol vs placebo [8]: 1.35; 24 Ev
HF Hospitalization hazard ratio, bucindolol vs placebo [9]: 0.93; 411 Ev
Mortality + HF Hospitalization hazard ratio, bucindolol vs placebo [9]: 0.86; 185 Ev
Mortality hazard ratio, bucindolol vs placebo [9]: 0.82; 86 Ev
Number of deaths (%) (Bucindolol Incr subgroup, n = 137): 43 (31%)*
Number of deaths (%) (Bucindolol Inter subgroup, n = 551): 114 (21%)
Number of deaths (%) (Bucindolol Redxn subgroup, n = 153): 52 (34%)*
hazard ratio for hospitalizations, bucindolol vs placebo (Gly389 carriers): 0.85
Crude mortality (1st quartile of % NE change (< −30.2)): 25.2%
Crude mortality (1st quartile of absolute NE change (< −144 pg/ml)): 26.1%
Crude mortality (2nd quartile of % NE change (−30.2 to < −2.5)): 26.0%
Crude mortality (2nd quartile of absolute NE change (−144 to < −9 pg/ml)): 25.7%
Crude mortality (3rd quartile of % NE change (−2.5 to 31.1)): 18.8%
Crude mortality (3rd quartile of absolute NE change (−9 to 111 pg/ml)): 17.7* %
Crude mortality (4th quartile of % NE change (> 31.1)): 29.1%
Crude mortality (4th quartile of absolute NE change (> 111 pg/ml)): 28.6%
increased risk of subsequent mortality with marked norepinephrine reduction at 3 months (bucindolol subgroup with NE reduction ≧244.5 pg/ml (Group 1) vs intermediate change group, hydrochloride): 1.7 fold and 1.65 fold
Mortality hazard ratio, Arg/Arg:Gly carrier (bucindolol-treated, BSL NE 64-356 pg/ml (146)): 0.90
Mortality hazard ratio, Arg/Arg:Gly carrier (bucindolol-treated, BSL NE 358-545 pg/ml (144)): 0.74
Mortality hazard ratio, Arg/Arg:Gly carrier (bucindolol-treated, BSL NE 546-2571 pg/ml (149)): 0.68
Mortality hazard ratio, Arg/Arg:Gly carrier (bucindolol-treated, Group 1, change in NE @ 3 mos <−244 (70)): 1.07
Mortality hazard ratio, Arg/Arg:Gly carrier (bucindolol-treated, Group 2, change in NE @ 3 mos −244 to 145 (248)): 0.82
Mortality hazard ratio, Arg/Arg:Gly carrier (bucindolol-treated, Group 3, change in NE @ 3 mos >145 (54)): 0.36
relatively better mortality reduction of Arg homozygotes vs Gly carriers (bucindolol-treated, increasing norepinephrine group (>145 pg/ml)): 64%
Mortality (M) hazard ratio, NE change quartile 2nd/1st (% NE change at 3 months): 1.14
Mortality (M) hazard ratio, NE change quartile 3rd/1st (% NE change at 3 months): 0.77
Mortality (M) hazard ratio, NE change quartile 4th/1st (% NE change at 3 months): 1.19
Mortality + CHF hospitalization (M + H) hazard ratio, NE change quartile 2nd/1st (% NE change at 3 months): 1.18
Mortality + CHF hospitalization (M + H) hazard ratio, NE change quartile 3rd/1st (% NE change at 3 months): 0.91
Mortality + CHF hospitalization (M + H) hazard ratio, NE change quartile 4th/1st (% NE change at 3 months): 1.18
Mortality (M) hazard ratio, NE change quartile 2nd/1st [10]: 0.99
Mortality (M) hazard ratio, NE change quartile 3rd/1st [10]: 0.66
Mortality (M) hazard ratio, NE change quartile 4th/1st [10]: 1.15
Mortality + CHF hospitalization (M + H) hazard ratio, NE change quartile 2nd/1st [10]: 1.00
Mortality + CHF hospitalization (M + H) hazard ratio, NE change quartile 3rd/1st [10]: 0.83
Mortality + CHF hospitalization (M + H) hazard ratio, NE change quartile 4th/1st [10]: 1.10
increase in CV mortality (α2c DEL 322-325 and β1 389Gly carriers): 36%
increase in cardiovascular mortality (α2c DEL 322-325 carriers): 3%
increase in all-cause mortality (α2c DEL 322-325 carriers who are β1 389Gly carriers, hydrochloride): 36% and 35%
reduction in cardiovascular mortality (α2c WT/WT patients): 41%
reduction in mortality plus HF hospitalization (α2c wild type patients): 28%
reduction in all-cause mortality (α2cAR wild type (WT/WT) patients, hydrochloride): 29% and 30%
reduction in mortality (α2cAR wild type patients who are β1 389Gly carriers (nonsignificant)): 22%
mortality reduction (α2cAR-Del322-325 carriers with β1AR-389Arg/Arg): 18%
increase in all-cause mortality (α2cAR-Del322-325 carriers, hydrochloride): 10% and 9%
reduction in all-cause mortality [11]: 40%
reduction in cardiovascular mortality [11]: 47%
reduction in mortality + heart failure hospitalization [11]: 39%
reduction in cardiovascular mortality (β1 389Arg/Arg patients): 46%
reduction in all-cause mortality (β1 389Gly carriers (nonsignificant)): 10%
reduction in cardiovascular mortality (β1 389Gly carriers (p=NS)): 22%
reduction in HF hospitalization (β1-389 Arg/Arg + α2c wild type patients): 41%
hazard ratio for survival, bucindolol vs placebo (β1-Arg389 homozygotes): 0.62
hazard ratio for survival, bucindolol vs placebo (β1-Gly389 carriers): 0.89
reduction in all-cause mortality (improvement in survival) (β1AR-389Arg/Arg patients): 38%

Source: patent publication US8093286B2, “Methods for treatment with bucindolol based on genetic targeting” (The Regents of the University of Colorado, a body corporate, priority 2004, dated 2012)
